Results taken from US6969507B2, “Imaging sexual response” (Epix Pharmaceuticals, Inc., priority 1999, dated 2005).

Assay: Dynamic MS-325 contrast-enhanced MRI of the genitalia/perineum during neutral and erotic video
Format: in vivo, human
Conditions: eight healthy women; 0.05 or 0.02 mmol/kg intravenous
Protocol: Imaging of the genitalia was performed in four pre-menopausal and four post-menopausal healthy, sexually functional women subjects after administration of MS-325 (MS-325, EPIX Medical, Inc.). All volunteers signed an IRB-approved informed consent form for the study.
Six of the subjects received an intravenous injection of 0.05 mmol/kg of MS-325 and two received an intravenous injection of 0.02 mmol/kg of MS-325. Dynamic MRI (3D SPGR, 11/1.7/35°) of the perineum was performed on all subjects while they viewed videos containing first neutral material, then erotic material and finally neutral material via a fiberoptic audiovideo system. Each segment of neutral or erotic material was up to 15 minutes in length. Subjects also filled out questionnaires in response to the videos that had them subjectively rate their degree of sexual arousal.
Serial imaging was performed at least every 3 minutes, beginning just prior to contrast injection and continuing up to 45 minutes post injection. […] Clitoral volume was measured at each time point. Relative regional blood volume was determined from signal intensity versus time curves and compared with subjective measures of arousal.
In these studies, MRI was compared with vaginal photoplethysmography to confirm that MRI accurately assessed the vascular component of the arousal response.

Structure (SMILES): O=C([O-])CN(CCN(CC(=O)[O-])C[C@H](COP(=O)([O-])OC1CCC(c2ccccc2)(c2ccccc2)CC1)N(CC(=O)[O-])CC(=O)[O-])CC(=O)[O-].[Gd+3].[H+].[H+].[H+] [MS-325]
- tolerability of the procedure (contrast injection and MRI): tolerated
